From patent US20250108036A1, “COMPOSITIONS FOR REMOVING SENESCENT CELLS AND USES THEREOF” (LIFECEUTIX CO., LTD., priority 2021, published 2025)
Where two headings read alike, the source gives them in different places.

Tests used:
Type in all cases: cell-based, human
A549 = assay: CellTiter-Glo cell viability of senescent A549 cancer cells (Example 12, Table 67); settings: Homo sapiens; for viability at 90 µM: 90 μM test compound; for viability at 270 µM: 270 μM test compound
HMGN1 [1] = assay: HMGN1 ELISA in culture medium of A549 cancer cells (Example 12, Table 66); settings: Homo sapiens; for activity at 90 µM: test compound 90 μM
[2] = tested on: foreskin cells in which senescence was induced by doxorubicin; assay: CellTiter-Glo cell viability of doxorubicin-induced senescent foreskin cells (Examples 1-2, 10, 11, 13; Tables 4, 63, 65); settings: Homo sapiens, 72 h, read-out: Survival (%); for viability at 30 µM: 30 μM test compound; for viability at […]: […] test compound; for viability at 90 µM: 90 μM test compound
Experimental: After 3 days, cell viability was measured using CellTiter-Glo Luminescent Cell Viability Assay (Promega) or light microscopy.

HMGN1 [3] = assay: HMGN1 ELISA in culture medium of foreskin cells (Examples 10, 11; Tables 62, 63, 64); settings: Homo sapiens; for activity at 30 µM: read-out: HMGN1; for activity at 90 µM: 90 μM test compound
[4] = A549, doxorubicin-induced senescent A549 cancer cells, 1.1 μM test compound, CellTiter-Glo, read-out: Survival (%)
[5] = A549, doxorubicin-induced senescent A549 cancer cells, 10 μM test compound, CellTiter-Glo, read-out: Survival (%)
[6] = A549, doxorubicin-induced senescent A549 cancer cells, 30 μM test compound, CellTiter-Glo, read-out: Survival (%)
[7] = A549, doxorubicin-induced senescent A549 cancer cells, CellTiter-Glo, read-out: Survival (%)
[8] = A549, doxorubicin-induced senescent A549 cells, ELISA, DMSO = 100, read-out: HMGN1 (amount of HMGN1 secreted in the cell culture)
[9] = 1.1 μM test compound, doxorubicin-induced senescent foreskin cells, CellTiter-Glo, 0 μM = 100
[10] = 10 μM test compound, doxorubicin-induced senescent foreskin cells, CellTiter-Glo, 0 μM = 100
[11] = doxorubicin-induced senescent foreskin cells, CellTiter-Glo, 0 μM = 100
[12] = 30 μM test compound, doxorubicin-treated foreskin cells, DMSO = 100
[13] = A549, read-out: HMGN1 (amount of HMGN1 secreted in the cell culture)
[14] = A549, doxorubicin-induced senescent A549 cells, test compound 30 μM, ELISA, DMSO = 100, read-out: HMGN1 (amount of HMGN1 secreted in the cell culture)
[15] = doxorubicin-treated foreskin cells, DMSO = 100

Row | SMILES | viability at 1.1 µM (A549; [4]) [%] | viability at 10 µM (A549; [5]) [%] | viability at 30 µM (A549; [6]) [%] | viability at 90 µM (A549; [7]) [%] | viability at 1.1 µM [2, 9] [%] | viability at 10 µM [2, 10] [%] | viability at 30 µM [2, 11] [%] | viability at […] [2, 11] [%] | activity at 30 µM (HMGN1 [3]; [12]) [%] | activity at 30 µM (HMGN1 [1]; [14]) [%] | other results
1 | Cc1ccc(-c2c(C#N)c(N)n3c(nc4ccccc43)c2C#N)cc1 [LX-1101] | 95.4 | 92.7 | 88.3 | 23.7 | 108 | 47.1 | 22.8 | 112 | 268 |  | activity at 90 µM (HMGN1 [1]; [8]): 183%
2 | NCC(=O)CCC(=O)O [LX-1103, 5-Aminolevulinic acid, reference compound] | 96.6 | 95.1 | 91 | 91.1 | 104 | 99.6 | 95.2 | 98.9 |  |  | viability at 270 µM (A549; [7]): 63.7%; activity at 270 µM (HMGN1 [1]; A549, doxorubicin-induced senescent A549 cells, test compound 270 μM, ELISA, DMSO = 100, read-out: HMGN1 (amount of HMGN1 secreted in the cell culture)): 158%; viability at 90 µM [2, 11]: 88%; viability at 270 µM ([2]; 270 μM test compound, doxorubicin-induced senescent foreskin cells, CellTiter-Glo, 0 μM = 100): 61.3%; activity at 270 µM (HMGN1 [3]; 270 μM test compound, doxorubicin-treated foreskin cells, DMSO = 100): 172%
3 | CCCCCCCCCCCCCCCC[P+](c1ccccc1)(c1ccccc1)c1ccccc1 [LX-1201, Hexadecyltriphenylphosphonium] |  |  |  |  |  |  |  |  |  |  | viability at 1.1 µM (A549; A549, read-out: Survival (%)): 47.3%; activity at 30 µM (HMGN1 [1]; [13]): 289%; viability at 1.1 µM [2]: 23%; activity at 30 µM (HMGN1 [3]): 311%
4 | COC1=C(OC)C(=O)C(CCCCCCCCCC[P+](c2ccccc2)(c2ccccc2)c2ccccc2)=C(C)C1=O [LX-1203, Mitoquinone] | 88.7 | 15.5 |  |  |  | 1.5 |  | 38.2 | 311 | 298 | 
5 | Clc1ccc(C(c2ccccc2Cl)C(Cl)Cl)cc1 (stereo not shown) [LX-1301, Mitotane, reference compound] | 106 | 101 | 17.5 |  | 104 | 83 | 0.4 | 106 | 281 | 318 | 
6 | O=C(O)c1cc(/N=N/c2ccc(S(=O)(=O)Nc3ccccn3)cc2)ccc1O [LX-1302, Sulfasalazine, reference compound] | 95.5 | 102 | 102 | 69.6 | 102 | 92.2 | 79.6 | 105 |  |  | viability at 270 µM (A549; [7]): 19.8%; activity at 90 µM (HMGN1 [1]; [8]): 147%; viability at 90 µM [2, 11]: 52.4%; activity at 90 µM (HMGN1 [3]; [15]): 171%
7 | C[C@H](CN1CCCC1)C(=O)c1ccc(C(F)(F)F)cc1 [LX-1402, Lanperisone, reference compound] | 97.6 | 81.1 | 29.5 |  | 101 | 15.6 | 2.1 | 97.6 | 304 | 248 | 
8 | Cc1ccc(C(=O)C(C)CN2CCCCC2)cc1 (stereo not shown) [LX-1403, Tolperisone, reference compound] | 97.6 | 70 | 8.4 |  | 102 | 55.4 | 18.3 | 97.6 | 282 | 306 | 
9 | CCc1ccc(C(=O)C(C)CN2CCCC2)cc1 (stereo not shown) [LX-1405, Inaperisone, reference compound] | 97.1 | 82.8 | 37.4 |  | 102 | 69.6 | 28.5 | 92.7 | 219 | 187 | 
10 | CCN(CC)C(=S)SSC(=S)N(CC)CC [LX-1601, Disulfiram, reference compound] | 114 | 118 | 74.2 | 3.1 | 93.7 | 95.6 | 61.4 | 90 | 154 |  | activity at 90 µM (HMGN1 [1]; [8]): 257%
11 | Cc1c(-c2ccc(-c3ccccc3F)cc2)nc2ccc(F)cc2c1C(=O)O [LX-1602, Brequinar, reference compound] | 94.3 | 96.5 | 39.8 |  | 109 | 57.7 | 36.4 | 93.8 | 228 | 197 | 
12 | Cc1oncc1C(=O)Nc1ccc(C(F)(F)F)cc1 [LX-1603, Leflunomide, reference compound] | 99.6 | 95.7 | 96.5 | 49.8 | 101 | 91.1 | 84.3 | 95.6 |  |  | activity at 90 µM (HMGN1 [1]; [8]): 163%; viability at 90 µM [2, 11]: 48.3%; activity at 90 µM (HMGN1 [3]; [15]): 168%
13 | Cc1c(O)ccc2c1OCC(c1ccc(O)cc1)C2c1ccc(O)cc1 (stereo not shown) [LX-1605] | 91.7 | 41.8 | 6.4 |  | 83.4 | 43.7 | 11.3 | 63.8 | 284 | 338 | 
14 | CS(=O)(=O)CCNCc1ccc(-c2ccc3ncnc(Nc4ccc(OCc5cccc(F)c5)c(Cl)c4)c3c2)o1 [LX-1607, Lapatinib, reference compound] | 95.7 | 62.7 | 15.1 |  | 77 | 54.3 | 32.8 | 68 | 238 | 311 | 
15 | CCOc1cc2ncc(C#N)c(Nc3ccc(OCc4ccccn4)c(Cl)c3)c2cc1NC(=O)/C=C/CN(C)C [LX-1608, Neratinib, reference compound] |  |  |  |  |  |  |  |  |  |  | viability at 1.1 µM (A549; A549, read-out: Survival (%)): 59.3%; viability at 10 µM (A549; A549, read-out: Survival (%)): 24.7%; viability at 30 µM (A549; A549, read-out: Survival (%)): 2.6%; activity at 30 µM (HMGN1 [1]; [13]): 317%; viability at 1.1 µM [2]: 45.1%; viability at 10 µM [2]: 3.9%; activity at 30 µM (HMGN1 [3]): 296%
16 | CO[C@]1(C(=O)N[C@@H](C)c2ccc(-n3cc(F)cn3)nc2)CC[C@H](c2nc(C)cc(Nc3cc(C)[nH]n3)n2)CC1 [LX-1902, Pralsetinib, reference compound] | 66.2 | 4.2 |  |  | 59 | 11.9 | 3.9 | 39.6 | 303 | 271 | 
17 | Cc1c(O)cccc1C(=O)N[C@@H](CSc1ccccc1)[C@H](O)CN1C[C@H]2CCCC[C@H]2C[C@H]1C(=O)NC(C)(C)C [LX-1905, Nelfinavir, reference compound] | 100 | 89.1 | 53.9 |  | 102 | 27.9 | 13.2 | 66.4 | 315 | 201 | 
18 | C[C@H]1[C@H](C)CC[C@]2(C(=O)O)CC[C@]3(C)C(=CC[C@@H]4[C@@]5(C)CC[C@H](O)C(C)(C)[C@@H]5CC[C@]43C)[C@H]12 [LX-2001, Ursolic acid] | 98.3 | 5.1 |  |  | 75.2 |  |  | 0.8 | 328 | 328 | 
19 | C[C@H]1[C@H](C)CC[C@]2(C(=O)O)CC[C@]3(C)C(=CC[C@@H]4[C@@]5(C)C[C@@H](O)[C@H](O)C(C)(C)[C@@H]5CC[C@]43C)[C@H]12 [LX-2002, Corosolic acid] | 99.6 | 10.4 |  |  | 101 |  |  | 12.4 | 305 | 314 | 
20 | CC1(C)CC[C@]2(C(=O)O)CC[C@]3(C)C(=CC[C@@H]4[C@@]5(C)CC[C@H](O)C(C)(C)[C@@H]5CC[C@]43C)[C@@H]2C1 [LX-2003, Oleanolic acid] | 97.5 | 90.6 | 52.7 | 18.3 | 89.6 | 34.6 | 14 | 65.8 | 298 |  | activity at 90 µM (HMGN1 [1]; [8]): 218%
